# From the supplement of paper PMC10307832
# Legend:
# Experiment in all cases: relative viability (nuclei count vs DMSO), 5 days (fraction); higher = more cells survive
# KIN001-266 + Pictilisib = compound: CCN1CCC(CC1)N2C=C(N=N2)CNC3=CC4=C(C(=CN=C4C(=C3)Cl)C#N)NC5=CC(=C(C=C5)F)Cl [KIN001-266] + CS(=O)(=O)N1CCN(Cc2cc3nc(-c4cccc5[nH]ncc45)nc(N4CCOCC4)c3s2)CC1 [Pictilisib] (partner 1 µM)
# Summary of the method: (§1)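 Five library-drug doses in √10 steps were combined with a fixed anchor-drug dose, or a single drug was given alone, by pin tool to lung cancer cell lines in 1536-well plates the day after seeding. Nuclei were stained and counted after 5 days. Relative viability is the nuclei count in treated wells over that in vehicle wells, taken as the median of duplicate plates.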
# KIN001-266 + Decitabine = compound: CCN1CCC(CC1)N2C=C(N=N2)CNC3=CC4=C(C(=CN=C4C(=C3)Cl)C#N)NC5=CC(=C(C=C5)F)Cl [KIN001-266] + Nc1ncn([C@H]2C[C@H](O)[C@@H](CO)O2)c(=O)n1 [Decitabine] (partner 2 µM)
# Summary of the method: as §1
# KIN001-266 + Crizotinib = compound: CCN1CCC(CC1)N2C=C(N=N2)CNC3=CC4=C(C(=CN=C4C(=C3)Cl)C#N)NC5=CC(=C(C=C5)F)Cl [KIN001-266] + C[C@@H](Oc1cc(-c2cnn(C3CCNCC3)c2)cnc1N)c1c(Cl)ccc(F)c1Cl [Crizotinib] (partner 1 µM)
# Summary of the method: as §1
# KIN001-266 + Alpelisib = compound: CCN1CCC(CC1)N2C=C(N=N2)CNC3=CC4=C(C(=CN=C4C(=C3)Cl)C#N)NC5=CC(=C(C=C5)F)Cl [KIN001-266] + Cc1nc(NC(=O)N2CCC[C@H]2C(N)=O)sc1-c1ccnc(C(C)(C)C(F)(F)F)c1 [Alpelisib] (partner 2 µM)
# Summary of the method: as §1
# KIN001-266 + Phenformin = compound: CCN1CCC(CC1)N2C=C(N=N2)CNC3=CC4=C(C(=CN=C4C(=C3)Cl)C#N)NC5=CC(=C(C=C5)F)Cl [KIN001-266] + N=C(N)NC(=N)NCCc1ccccc1 [Phenformin] (partner 250 µM)
# Summary of the method: as §1
# KIN001-266 + Lapatinib = compound: CCN1CCC(CC1)N2C=C(N=N2)CNC3=CC4=C(C(=CN=C4C(=C3)Cl)C#N)NC5=CC(=C(C=C5)F)Cl [KIN001-266] + CS(=O)(=O)CCNCc1ccc(-c2ccc3ncnc(Nc4ccc(OCc5cccc(F)c5)c(Cl)c4)c3c2)o1 [Lapatinib] (partner 2 µM)
# Summary of the method: as §1
# KIN001-266 + Olaparib = compound: CCN1CCC(CC1)N2C=C(N=N2)CNC3=CC4=C(C(=CN=C4C(=C3)Cl)C#N)NC5=CC(=C(C=C5)F)Cl [KIN001-266] + O=C(c1cc(Cc2n[nH]c(=O)c3ccccc23)ccc1F)N1CCN(C(=O)C2CC2)CC1 [Olaparib] (partner 8 µM)
# Summary of the method: as §1
# KIN001-266 + Navitoclax = compound: CCN1CCC(CC1)N2C=C(N=N2)CNC3=CC4=C(C(=CN=C4C(=C3)Cl)C#N)NC5=CC(=C(C=C5)F)Cl [KIN001-266] + CC1(C)CCC(c2ccc(Cl)cc2)=C(CN2CCN(c3ccc(C(=O)NS(=O)(=O)c4ccc(N[C@H](CCN5CCOCC5)CSc5ccccc5)c(S(=O)(=O)C(F)(F)F)c4)cc3)CC2)C1 [Navitoclax] (partner 0.5 µM)
# Summary of the method: as §1
# KIN001-266 + Foretinib = compound: CCN1CCC(CC1)N2C=C(N=N2)CNC3=CC4=C(C(=CN=C4C(=C3)Cl)C#N)NC5=CC(=C(C=C5)F)Cl [KIN001-266] + COc1cc2c(Oc3ccc(NC(=O)C4(C(=O)Nc5ccc(F)cc5)CC4)cc3F)ccnc2cc1OCCCN1CCOCC1 [Foretinib] (partner 0.25 µM)
# Summary of the method: as §1
# KIN001-266 + Linsitinib = compound: CCN1CCC(CC1)N2C=C(N=N2)CNC3=CC4=C(C(=CN=C4C(=C3)Cl)C#N)NC5=CC(=C(C=C5)F)Cl [KIN001-266] + C[C@]1(O)C[C@@H](c2nc(-c3ccc4ccc(-c5ccccc5)nc4c3)c3c(N)nccn32)C1 [Linsitinib] (partner 1 µM)
# Summary of the method: as §1
# KIN001-266 = compound: CCN1CCC(CC1)N2C=C(N=N2)CNC3=CC4=C(C(=CN=C4C(=C3)Cl)C#N)NC5=CC(=C(C=C5)F)Cl [KIN001-266]
# Summary of the method: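 Vehicle-anchored 1536-well plates of lung cancer cell lines, held overnight at 37 °C, were pinned with five library-drug doses (not always all listed) spaced by √10. No medium change followed over the next 5 days, after which the cells were fixed, permeabilised and Hoechst-stained together and imaged at 4×. Nuclei were counted with MetaXpress, and viability is treated-well nuclei over vehicle-well nuclei, taken as a median across plates. Plates passed with control CV below 25% and at least one doubling.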
# KIN001-266 + Bortezomib = compound: CCN1CCC(CC1)N2C=C(N=N2)CNC3=CC4=C(C(=CN=C4C(=C3)Cl)C#N)NC5=CC(=C(C=C5)F)Cl [KIN001-266] + CC(C)C[C@H](NC(=O)[C@H](Cc1ccccc1)NC(=O)c1cnccn1)B(O)O [Bortezomib] (partner 0.002 µM)
# Summary of the method: as §1
cell line,measurement,setting,value
A549,relative viability,KIN001-266 + Pictilisib; first compound 0.08 µM,0.584
same,relative viability,KIN001-266 + Pictilisib; first compound 0.253 µM,0.527
same,relative viability,KIN001-266 + Pictilisib; first compound 0.8 µM,0.519
same,relative viability,KIN001-266 + Pictilisib; first compound 2.53 µM,0.584
same,relative viability,KIN001-266 + Pictilisib; first compound 8 µM,0.393
same,relative viability,KIN001-266 + Decitabine; first compound 0.08 µM,0.401
same,relative viability,KIN001-266 + Decitabine; first compound 0.253 µM,0.207
same,relative viability,KIN001-266 + Decitabine; first compound 0.8 µM,0.24
same,relative viability,KIN001-266 + Decitabine; first compound 2.53 µM,0.35
same,relative viability,KIN001-266 + Decitabine; first compound 8 µM,0.223
same,relative viability,KIN001-266 + Crizotinib; first compound 0.08 µM,0.771
same,relative viability,KIN001-266 + Crizotinib; first compound 0.253 µM,0.733
same,relative viability,KIN001-266 + Crizotinib; first compound 0.8 µM,0.83
same,relative viability,KIN001-266 + Crizotinib; first compound 2.53 µM,0.739
same,relative viability,KIN001-266 + Crizotinib; first compound 8 µM,0.693
same,relative viability,KIN001-266 + Alpelisib; first compound 0.08 µM,1.01
same,relative viability,KIN001-266 + Alpelisib; first compound 0.253 µM,0.782
same,relative viability,KIN001-266 + Alpelisib; first compound 0.8 µM,0.898
same,relative viability,KIN001-266 + Alpelisib; first compound 2.53 µM,0.758
same,relative viability,KIN001-266 + Alpelisib; first compound 8 µM,0.701
same,relative viability,KIN001-266 + Phenformin; first compound 0.08 µM,0.22
same,relative viability,KIN001-266 + Phenformin; first compound 0.253 µM,0.178
same,relative viability,KIN001-266 + Phenformin; first compound 0.8 µM,0.131
same,relative viability,KIN001-266 + Phenformin; first compound 2.53 µM,0.14
same,relative viability,KIN001-266 + Phenformin; first compound 8 µM,0.14
same,relative viability,KIN001-266 + Lapatinib; first compound 0.08 µM,1.03
same,relative viability,KIN001-266 + Lapatinib; first compound 0.253 µM,0.991
same,relative viability,KIN001-266 + Lapatinib; first compound 0.8 µM,1.05
same,relative viability,KIN001-266 + Lapatinib; first compound 2.53 µM,0.924
same,relative viability,KIN001-266 + Lapatinib; first compound 8 µM,0.84
same,relative viability,KIN001-266 + Olaparib; first compound 0.08 µM,0.367
same,relative viability,KIN001-266 + Olaparib; first compound 0.253 µM,0.279
same,relative viability,KIN001-266 + Olaparib; first compound 0.8 µM,0.297
same,relative viability,KIN001-266 + Olaparib; first compound 2.53 µM,0.347
same,relative viability,KIN001-266 + Olaparib; first compound 8 µM,0.305
same,relative viability,KIN001-266 + Navitoclax; first compound 0.08 µM,1.26
same,relative viability,KIN001-266 + Navitoclax; first compound 0.253 µM,1.17
same,relative viability,KIN001-266 + Navitoclax; first compound 0.8 µM,1.27
same,relative viability,KIN001-266 + Navitoclax; first compound 2.53 µM,1.3
same,relative viability,KIN001-266 + Navitoclax; first compound 8 µM,1.2
same,relative viability,KIN001-266 + Foretinib; first compound 0.08 µM,0.95
same,relative viability,KIN001-266 + Foretinib; first compound 0.253 µM,0.854
same,relative viability,KIN001-266 + Foretinib; first compound 0.8 µM,1.04
same,relative viability,KIN001-266 + Foretinib; first compound 2.53 µM,0.87
same,relative viability,KIN001-266 + Foretinib; first compound 8 µM,0.926
same,relative viability,KIN001-266 + Linsitinib; first compound 0.08 µM,0.604
same,relative viability,KIN001-266 + Linsitinib; first compound 0.253 µM,0.55
same,relative viability,KIN001-266 + Linsitinib; first compound 0.8 µM,0.562
same,relative viability,KIN001-266 + Linsitinib; first compound 2.53 µM,0.668
same,relative viability,KIN001-266 + Linsitinib; first compound 8 µM,0.592
same,relative viability,KIN001-266; 0.08 µM,1.02
same,relative viability,KIN001-266; 0.253 µM,0.974
same,relative viability,KIN001-266; 0.8 µM,1.03
same,relative viability,KIN001-266; 2.53 µM,0.891
same,relative viability,KIN001-266; 8 µM,0.939
EBC-1,relative viability,KIN001-266 + Pictilisib; first compound 0.08 µM,0.416
same,relative viability,KIN001-266 + Pictilisib; first compound 0.253 µM,0.519
same,relative viability,KIN001-266 + Pictilisib; first compound 0.8 µM,0.553
same,relative viability,KIN001-266 + Pictilisib; first compound 2.53 µM,0.576
same,relative viability,KIN001-266 + Pictilisib; first compound 8 µM,0.329
same,relative viability,KIN001-266 + Crizotinib; first compound 0.08 µM,0.183
same,relative viability,KIN001-266 + Crizotinib; first compound 0.253 µM,0.205
same,relative viability,KIN001-266 + Crizotinib; first compound 0.8 µM,0.205
same,relative viability,KIN001-266 + Crizotinib; first compound 2.53 µM,0.203
same,relative viability,KIN001-266 + Crizotinib; first compound 8 µM,0.185
same,relative viability,KIN001-266 + Alpelisib; first compound 0.08 µM,0.929
same,relative viability,KIN001-266 + Alpelisib; first compound 0.253 µM,0.879
same,relative viability,KIN001-266 + Alpelisib; first compound 0.8 µM,0.822
same,relative viability,KIN001-266 + Alpelisib; first compound 2.53 µM,0.843
same,relative viability,KIN001-266 + Alpelisib; first compound 8 µM,0.629
same,relative viability,KIN001-266 + Lapatinib; first compound 0.08 µM,0.219
same,relative viability,KIN001-266 + Lapatinib; first compound 0.253 µM,0.218
same,relative viability,KIN001-266 + Lapatinib; first compound 0.8 µM,0.209
same,relative viability,KIN001-266 + Lapatinib; first compound 2.53 µM,0.199
same,relative viability,KIN001-266 + Lapatinib; first compound 8 µM,0.201
same,relative viability,KIN001-266 + Bortezomib; first compound 0.08 µM,0.566
same,relative viability,KIN001-266 + Bortezomib; first compound 0.253 µM,0.502
same,relative viability,KIN001-266 + Bortezomib; first compound 0.8 µM,0.477
same,relative viability,KIN001-266 + Bortezomib; first compound 2.53 µM,0.446
same,relative viability,KIN001-266 + Bortezomib; first compound 8 µM,0.364
same,relative viability,KIN001-266 + Olaparib; first compound 0.08 µM,0.76
same,relative viability,KIN001-266 + Olaparib; first compound 0.253 µM,0.72
same,relative viability,KIN001-266 + Olaparib; first compound 0.8 µM,0.635
same,relative viability,KIN001-266 + Olaparib; first compound 2.53 µM,0.649
same,relative viability,KIN001-266 + Olaparib; first compound 8 µM,0.511
same,relative viability,KIN001-266 + Navitoclax; first compound 0.08 µM,0.398
same,relative viability,KIN001-266 + Navitoclax; first compound 0.253 µM,0.413
same,relative viability,KIN001-266 + Navitoclax; first compound 0.8 µM,0.409
same,relative viability,KIN001-266 + Navitoclax; first compound 2.53 µM,0.359
same,relative viability,KIN001-266 + Navitoclax; first compound 8 µM,0.217
same,relative viability,KIN001-266 + Foretinib; first compound 0.08 µM,0.0963
same,relative viability,KIN001-266 + Foretinib; first compound 0.253 µM,0.1
same,relative viability,KIN001-266 + Foretinib; first compound 0.8 µM,0.105
same,relative viability,KIN001-266 + Foretinib; first compound 2.53 µM,0.128
same,relative viability,KIN001-266 + Foretinib; first compound 8 µM,0.117
same,relative viability,KIN001-266 + Linsitinib; first compound 0.08 µM,1.04
same,relative viability,KIN001-266 + Linsitinib; first compound 0.253 µM,0.896
same,relative viability,KIN001-266 + Linsitinib; first compound 0.8 µM,0.839
same,relative viability,KIN001-266 + Linsitinib; first compound 2.53 µM,1.01
same,relative viability,KIN001-266 + Linsitinib; first compound 8 µM,0.726
same,relative viability,KIN001-266; 0.08 µM,1.04
same,relative viability,KIN001-266; 0.253 µM,1.02
same,relative viability,KIN001-266; 0.8 µM,0.954
same,relative viability,KIN001-266; 2.53 µM,0.988
same,relative viability,KIN001-266; 8 µM,0.704
